We go through 51 compounds from the supplement of paper PMC10949913.

The test system of one experiment is CU-ACC2. Nature of the experiment: area under concentration-response curve (viability) (AUC (a.u.)); higher = less active. Particulars: 48 h. Summed up: (§1)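 In 1,536-well plates, 500–1,000 cells/well of three adrenocortical carcinoma cell lines in 5 µL medium received 23 nL of each library compound across 11 concentrations. At 48 h, CellTiter-Glo was incubated for 15 minutes at room temperature and luminescence measured. Per-plate normalisation used vehicle and empty-well controls, and only inhibitory or non-responding curve classes were kept when fitting concentration-response curves for AC50 and area under the curve.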

The subject of a further experiment is CU-ACC1. The experiment is described as above. Particulars: 48 h. Summed up: as §1

For the compound `Cc1[nH]c(=O)c(C#N)cc1-c1ccc2nccn2c1.Cl`, the “area under concentration-response curve” value in the experiment on CU-ACC2 worked out at 624; in the experiment on CU-ACC1, 587.
In the case of `O=C(Nc1cccnc1)c1cc(-c2ccnc(F)c2)ccc1OCc1ccccc1`, the “area under concentration-response curve” value in the experiment on CU-ACC2 was 615; in the experiment with CU-ACC1 it was 514.
Turning to `O=C(C1CC1)N1CC[C@@H](Cn2c(-c3ccc(-c4ccc5occc5c4)cc3)nc3cnccc32)C1`, the “area under concentration-response curve” value in the experiment with CU-ACC2 is 486; in the experiment on CU-ACC1, 505.
For `COCCCOc1cc(C[C@@H](C[C@H](N)[C@@H](O)C[C@H](C(=O)NCC(C)(C)C(N)=O)C(C)C)C(C)C)ccc1OC`, the “area under concentration-response curve” value in the experiment with CU-ACC2 came to 648; in the experiment with CU-ACC1, 564.
Turning to `O=P(O)(O)C(O)(Cn1ccnc1)P(=O)(O)O`, the “area under concentration-response curve” value in the experiment with CU-ACC2 worked out at 679; in the experiment on CU-ACC1, 628.
For the compound `CC(C)N(C[C@H]1O[C@@H](n2cnc3c(N)ncnc32)[C@H](O)[C@@H]1O)[C@H]1C[C@@H](CCc2nc3cc(C(C)(C)C)ccc3[nH]2)C1`, the “area under concentration-response curve” value with CU-ACC2 was 598; in the experiment on CU-ACC1 it was 543.
`COc1ccc2[nH]c([S+]([O-])Cc3ncc(C)c(OC)c3C)nc2n1` (configuration not stated): the “area under concentration-response curve” value in the experiment with CU-ACC2 was 637; in the experiment on CU-ACC1 it was 542.
For `Clc1ccc(COC(Cn2ccnc2)c2ccc(Cl)cc2Cl)c(Cl)c1` (configuration not stated), the “area under concentration-response curve” value in the experiment with CU-ACC2 was 308; with CU-ACC1 it was 265.
On to `CCC(C)(C)c1ccc(CC(C)CN2C[C@@H](C)O[C@@H](C)C2)cc1` (some centres not stated), for which the entries for the “area under concentration-response curve” value in the experiment with CU-ACC2 and in the experiment with CU-ACC1 were 504 and 462, respectively.
On to `CC(C)c1ccc2c(c1)c(SC(C)(C)C)c(CC(C)(C)C(=O)[O-])n2Cc1ccc(Cl)cc1`, for which the “area under concentration-response curve” value in the experiment on CU-ACC2 came to 572; in the experiment on CU-ACC1 it was 457.
Regarding `O=C(c1ccccc1)c1ccc2n1CCC2C(=O)O` (configuration not stated), the “area under concentration-response curve” value in the experiment on CU-ACC2 came to 529; with CU-ACC1, 448.
For `CO[C@@H]1COCC[C@@H]1N[C@@H]1CC[C@@](C(=O)N2CCc3ncc(C(F)(F)F)cc3C2)(C(C)C)C1`, the results for the “area under concentration-response curve” value with CU-ACC2 and in the experiment on CU-ACC1 were 640 and 591, respectively.
Take `C=CC(=O)N1C[C@H](Nc2ncnc3[nH]ccc23)CC[C@@H]1C`: the “area under concentration-response curve” value in the experiment with CU-ACC2 stood at 622; in the experiment on CU-ACC1, 587.
In the case of `C[C@H]1[C@H](O)[C@@H](C)/C=C/C=C/CC/C=C/C=C/C=C/C=C/[C@H](O[C@@H]2O[C@H](C)[C@@H](O)[C@H](N)[C@@H]2O)C[C@@H]2O[C@](O)(C[C@@H](O)[C@H](O)CC[C@@H](O)C[C@@H](O)C[C@@H](O)CC(=O)O[C@H]1C)C[C@H](O)[C@H]2C(=O)O`, the figures for the “area under concentration-response curve” value in the experiment with CU-ACC2 and in the experiment on CU-ACC1 were 426 and 375, respectively.
As to `NC(=O)c1ccc(I)c([N+](=O)[O-])c1`, the “area under concentration-response curve” value in the experiment with CU-ACC2 amounted to 583; in the experiment with CU-ACC1, 549.
For `CN(C)CCN(C)CCc1ccc(Cl)c(Cl)c1`, in that order: 581 and 574.
With `CCCCCCCCCCCCCCCCOCCCO[P](O)(=O)COC(CO)CN1/C=C\C(=N/C1=O)N` (configuration not stated), the results for the “area under concentration-response curve” value in the experiment with CU-ACC2 and with CU-ACC1 were 609 and 551, respectively.
For the compound `NC/1=N/C(=O)N(/C=C1)[C@@H]2O[C@H](CO)[C@@H](O)C2(F)F`, the “area under concentration-response curve” value is 541 in the experiment with CU-ACC2 and 497 with CU-ACC1.
For the compound `CC[C@@]1([C@@H]2O[C@@H]([C@H]3O[C@@](O)(CO)[C@H](C)C[C@@H]3C)C[C@@H]2C)CC[C@H]([C@]2(C)CC[C@]3(C[C@H](O)[C@@H](C)[C@@H]([C@@H](C)[C@@H](OC)[C@H](C)C(=O)[O-])O3)O2)O1`, the “area under concentration-response curve” value in the experiment with CU-ACC2 came to 410; with CU-ACC1, 427.
With `CC[C@H](C)C(=O)O[C@H]1C[C@H](O)\C=C2\C=C/[C@H](C)[C@H](CC[C@@H](O)C[C@@H](O)CC(O)=O)[C@@H]12`, the “area under concentration-response curve” value was determined as 576 in the experiment on CU-ACC2 and 544 with CU-ACC1.
Turning to `CN(Cc1cc(Br)cc(Br)c1N)C1CCCCC1`, the “area under concentration-response curve” value in the experiment on CU-ACC2 was 526; with CU-ACC1, 383.
For `Cn1cc(C[C@@H](N)C(=O)O)c2ccccc21`, the “area under concentration-response curve” value came out at 658 with CU-ACC2 and 619 in the experiment with CU-ACC1.
For the compound `CN[C@H]1CN(C[C@@H]1OC)C2=NC3=C(C=C2)C(=O)C(=C\N3C4=NC=CS4)/C(O)=O`, the results for the “area under concentration-response curve” value in the experiment with CU-ACC2 and in the experiment with CU-ACC1 were 632 and 530, respectively.
Regarding `CCCCc1ccc(N[S+](=O)([O-])c2ccc(C)c(C(=O)N3CCN(c4cccc(C)c4C)CC3)c2)cc1`, the entries for the “area under concentration-response curve” value in the experiment with CU-ACC2 and in the experiment with CU-ACC1 were 634 and 527, respectively.
In the case of `CCc1cc(/C(C)=N/OCc2ccc(C3CCCCC3)c(C(F)(F)F)c2)ccc1CN1CC(C(=O)O)C1`, the “area under concentration-response curve” value with CU-ACC2 was 526; in the experiment with CU-ACC1, 462.
As to `COc1ccc2c(c1)c(CC(=O)O)c(C)n2C(=O)c1ccc(Cl)cc1`, the “area under concentration-response curve” value in the experiment on CU-ACC2 came to 566; in the experiment with CU-ACC1 it was 495.
For `C=CC(=O)N[C@H]1CN(c2nc(Nc3cn(C)nc3OC)c3ncn(C)c3n2)C[C@@H]1F`, in that order: 422 and 401.
Regarding `CC1(CN2CCC(n3c(=O)[nH]c4ccccc43)CC2)OCc2ccccc2-n2cccc21` (configuration not stated), the “area under concentration-response curve” value in the experiment with CU-ACC2 stood at 556; in the experiment on CU-ACC1, 494.
With `c1ccc(-c2nn3c(c2-c2ccnc4cc(OCCN5CCOCC5)ccc24)CCC3)nc1`, the “area under concentration-response curve” value with CU-ACC2 stood at 496; with CU-ACC1, 479.
As to `Nc1c2c(nc3ccccc13)CCCC2`, the “area under concentration-response curve” value in the experiment with CU-ACC2 was 653; in the experiment with CU-ACC1, 583.
Regarding `CC(=O)Oc1cc2c(s1)CCN(C(C(=O)C1CC1)c1ccccc1F)C2` (configuration not stated), the “area under concentration-response curve” value is 476 in the experiment on CU-ACC2 and 492 with CU-ACC1.
In the same order, the values of `CCCCCCOC(=O)/N=C(/N)c1ccc(NCc2nc3cc(C(=O)N(CCC(=O)OCC)c4ccccn4)ccc3n2C)cc1` are 594 and 523.
As to `O=C(NCCO[N+](=O)[O-])c1cccnc1`, the figures for the “area under concentration-response curve” value in the experiment on CU-ACC2 and in the experiment on CU-ACC1 were 605 and 566, respectively.
For `C[C@H](NC(=O)C1=C2N=CC=C[N]2N=C1N)\C3=C\C4=CC=CC(=C4C(=O)N3C5=CC=CC=C5)C#CC6=C[N](C)N=C6`, the “area under concentration-response curve” value in the experiment on CU-ACC2 amounted to 608; in the experiment with CU-ACC1 it was 511.
Regarding `O=C(Oc1ccc([N+](=O)[O-])cc1)N1CCN(Cc2cccc(Oc3ccccc3)c2)CC1`, the “area under concentration-response curve” value in the experiment on CU-ACC2 worked out at 556; in the experiment on CU-ACC1, 531.
Take `CCN(c1ccccc1)c1cc(NC)[n+](C)c(C)n1`: the “area under concentration-response curve” value was 600 with CU-ACC2 and 574 in the experiment with CU-ACC1.
Consider `C[C@]12CC[C@H]3[C@@H](CC[C@@]45O[C@@H]4\C(=C(/C[C@]35C)C#N)O)[C@@H]1CC[C@@H]2O`, for which the entries for the “area under concentration-response curve” value in the experiment on CU-ACC2 and with CU-ACC1 were 590 and 571, respectively.
As to `CNNCc1ccc(C(=O)NC(C)C)cc1`, the results for the “area under concentration-response curve” value in the experiment with CU-ACC2 and with CU-ACC1 were 526 and 517, respectively.
As for `CCO[C@@H]1OC(=O)C[C@@H]1NC(=O)[C@@H]1CCCN1C(=O)[C@@H](NC(=O)c1ccc(N)c(Cl)c1)C(C)(C)C`, the “area under concentration-response curve” value in the experiment with CU-ACC2 amounted to 518; in the experiment on CU-ACC1 it was 493.
For `C\C1=C\C(=O)OC2=C1C=CC(=C2)O`, the “area under concentration-response curve” value stood at 552 in the experiment with CU-ACC2 and 473 in the experiment with CU-ACC1.
Turning to `N#Cc1ccc(NC(=O)Nc2ccccc2Br)c2nn[nH]c12`, the “area under concentration-response curve” value came to 638 with CU-ACC2 and 573 in the experiment on CU-ACC1.
Consider `CCCCOc1ccc(C(=O)Nc2ccc(F)cc2F)cc1`, for which the figures for the “area under concentration-response curve” value in the experiment on CU-ACC2 and in the experiment on CU-ACC1 were 586 and 514, respectively.
On to `CCc1nc(-c2cccc(C)c2)c(-c2ccnc(NC(=O)c3ccccc3)c2)s1`, for which the “area under concentration-response curve” value came to 574 with CU-ACC2 and 490 in the experiment on CU-ACC1.
With `F\C1=C\NC(=O)NC1=O`, the “area under concentration-response curve” value in the experiment on CU-ACC2 came to 505; in the experiment with CU-ACC1, 483.
For `CN1CCc2c(c3ccccc3n2Cc2ccc(C(=O)NO)cc2)C1`, in that order: 595 and 553.
With `COC1=C(CN(C)C)C=C(OC)C(=C1)C/2=C/N(C)C(=O)C3=C2C=CN=C3`, the “area under concentration-response curve” value with CU-ACC2 turned out to be 597; in the experiment with CU-ACC1 it was 516.
For `CN1CCC(=C2c3ccccc3CC(=O)c3sccc32)CC1`, in that order: 537 and 557.
In the case of `CC(C)=CC[C@@H](O)C/1=C/C(=O)C2=C(O)C=CC(=C2C1=O)O`, the “area under concentration-response curve” value in the experiment with CU-ACC2 amounted to 603; with CU-ACC1, 568.
For `COc1ccccc1C(=O)Nc1cc2c(cc1N1CCCC1)n(C)c(=O)n2C`, the “area under concentration-response curve” value with CU-ACC2 was 602; in the experiment with CU-ACC1, 537.
For the compound `Cc1cc(C(=O)Nc2cc(Oc3ccc4nc(NC(=O)C5CC5)cn4n3)ccc2C)n(C)n1`, the figures for the “area under concentration-response curve” value with CU-ACC2 and with CU-ACC1 were 606 and 511, respectively.
With `CN(C)C(=N)NC(=N)N`, the “area under concentration-response curve” value turned out to be 572 with CU-ACC2 and 550 with CU-ACC1.
